Test results taken from patent US11510899B2, “RTX toxin production inhibitor and composition for treating symptom of vibrio infection by using same” (priority 2018, dated 2022).

Experiments:
HlyU [1] = target: T1, HlyU (Vibrio vulnificus, UniProt A0A3Q0L222); assay: High-throughput screening with E. coli reporter strain (pKK1306 + pZW1608 lux reporter); format: cell-based
T1 sequence (A0A3Q0L222 1-98): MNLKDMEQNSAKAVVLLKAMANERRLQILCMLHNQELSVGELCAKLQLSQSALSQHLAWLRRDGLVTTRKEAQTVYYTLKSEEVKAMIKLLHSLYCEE
Description: Meanwhile, to perform E. coli reporter strain construction and high-throughput screening, a pKK1306 plasmid cloned to induce wild-type hlyU genes by arabinose was constructed. The reporter plasmid is pZW1608, in which the promoter of the VVMO6_00539 gene, expression of which is directly repressed by HlyU, is cloned in front of the bioluminescence operon (lux operon). These two plasmids were simultaneously transformed into E. coli DH5 to construct an E. coli reporter strain (FIG. 1). FIG. 1 is a schematic diagram illustrating the strategy used to screen selective inhibitors of HlyU.
For the screening, approximately 8400 low-molecular-weight compounds were obtained from Korea Compound Bank and used in this experiment. […] When the absorbance at 600 nm (A600) of the culture solution, which was cultured at 37° C., reached 0.5, 100 μl of the culture solution was transferred to a 96-well black plate. […] While culturing at 37° C., the growth and bioluminescence of the reporter strain were measured using an Infinite™ M200 microplate reader (Tecan, Mannedorf, Switzerland). The relative luminescence unit (RLU) was calculated through normalization by division of the measured luminescence value by the absorbance. RLU=luminescence/absorbance [Equation 1] […]

[2] = In-vivo toxicity of CM2660 injected alone; details: subcutaneous, ICR female mice
Experimental: In order to determine whether or not CM2660 also decreases the virulence of Vibrio vulnificus in vivo using 7-week-old ICR female mice, Vibrio vulnificus cultured at A600=0.5 at 30° C. was prepared. This was mixed with DMSO (10%) or CM2660 (1.4 mg/kg of mouse body weight) and the resulting mixture was subcutaneously injected into the back of mice anesthetized with isoflurane. In addition, only CM2660 was injected subcutaneously in order to determine the in-vivo toxicity of CM2660 (FIG. 22). FIG. 22 is a graph showing the results of observation of the expression of in-vivo toxicity of Vibrio vulnificus after injecting CM2660 into mice.

[3] = tested on: exsA, vp1668, vopQ, vopS and vopR; assay: qRT-PCR of exsA and T3SS-1 genes in Vibrio parahaemolyticus; format: cell-based; details: 20 μM, DMEM, vs 2% DMSO
Description: In V. parahaemolyticus, HlyU is known to activate the gene expression of the master transcriptional regulator, exsA of type III secretion system-1 (T3SS-1), which causes cytotoxicity. In order to determine whether or not CM2660 reduces the expression of the exsA gene by inhibiting HlyU of V. parahaemolyticus, virulence gene expression of V. parahaemolyticus was investigated using the same method as in (2) of Experimental Example 1.
In order to induce the T3SS-1 gene expression of Vibrio parahaemolyticus, Vibrio parahaemolyticus was cultured in Dulbecco's Modified Eagle Medium (DMEM) medium.
Meanwhile, since ExsA activates the expression of the T3SS-1 gene of Vibrio parahaemolyticus, T3SS-1 gene expression was detected using the same sample to determine whether or not the expression of exsA leads to a decrease in T3SS-1 gene expression (FIG. 24).

rtxA, vvhA and plpA = assay: qRT-PCR of virulence genes activated by HlyU in Vibrio vulnificus; format: cell-based; details: 20 μM
Experimental: The effect of CM2660 on the expression of rtxA, vvhA and plpA, the virulence genes of Vibrio vulnificus activated by HlyU, was investigated. […] Then, the culture solution were sampled at the time at which the expression of each gene was mainly controlled by HlyU (A600=0.5 for rtxA and vvhA, and A600=1.0 for plpA), RNA was purified, and quantitative real-time polymerase chain reaction (quantitative Real-Time (qRT)-PCR) was performed (FIGS. 10 to 12).

Vibrio vulnificus = assay: Cytotoxicity of Vibrio vulnificus to INT-407 cells (LDH activity); format: cell-based; details: MOI 10, 2.5 hours, various concentrations
Experimental: Vibrio vulnificus cultured to A600=0.5 at 30° C. was treated with various concentrations of CM2660 or DMSO (control group) and infected into INT-407 cells prepared in 96-well assay plates at multiplicity of infection (MOI) of 10 for 2.5 hours. Then, the 96-well assay plates were centrifuged to separate INT-407 cells, and the supernatant and the lactate dehydrogenase (LDH) activity in the supernatant was measured to determine the occurrence of virulence (FIG. 13).

HlyU [4] = target: T1, HlyU; assay: Electrophoretic mobility shift assay (EMSA), HlyU binding to rtxA promoter DNA
Experimental: In order to investigate the effect of CM2660 on the DNA-binding capability of the HlyU protein, electrophoretic mobility shift assay (EMSA) experiments were performed using DNA at the known HlyU-binding rtxA promoter site.
The promoter site of the rtxA gene was amplified by PCR using ^32P-labeled primer, PrtxA-R (5′-[…]-3′) and unlabeled primer PrtxA-F (5′-[…]-3′). This DNA probe was reacted with 50 nM or 100 nM HlyU, 100 μM CM2660 or DMSO in reaction buffer (10 mM Tris-Cl, 50 mM KCl, 5 mM MgCl2, 0.75 mM DTT and 5% glycerol, 0.1 μg poly(dl-dC)) at 25° C. for 30 minutes.
The DNA-HlyU complex was electrophoresed on a polyacrylamide gel and phosphoimaged through Typhoon FLA7000 to determine the band position (FIG. 15, FIG. 16).

Vibrio alginolyticus = assay: Cytotoxicity of Vibrio alginolyticus; format: cell-based; details: CM2660 at different concentrations

**Q.** With `O=C(C#Cc1ccccc1)Nc1scc2c1c(=O)oc1ccccc12` [CM2660, N-(4-oxo-4H-thieno[3,4-c]chromen-3-yl)-3-phenylprop-2-ynamide] as the compound, how does the “bioluminescence of E. coli reporter strains” value (HlyU [1]; 20 μM compound, 0.0002% arabinose, vs DMSO) read?
**A.** significantly increased

**Q.** What about the “HlyU inhibitory effect among the seven screened compounds” value (HlyU [1]; Example 1, E. coli and Vibrio reporter strains) of the same compound?
**A.** best effect

**Q.** What about the “in-vivo toxicity (survival after CM2660 alone)” value [2] of the same compound?
**A.** did not show in-vivo toxicity

**Q.** What about the “exsA mRNA level” value [3] of the same compound?
**A.** significantly decreased

**Q.** What about the “vopQ mRNA level” value [3] of the same compound?
**A.** decreased significantly

**Q.** And the “vopR mRNA level” value [3]?
**A.** decreased significantly

**Q.** And the “vopS mRNA level” value [3]?
**A.** decreased significantly

**Q.** And the “vp1668 mRNA level” value [3]?
**A.** decreased significantly

**Q.** What about the “rtxA mRNA level” value (rtxA, vvhA and plpA; A600=0.5, vs 2% DMSO) of the same compound?
**A.** significantly reduced

**Q.** And the “vvhA mRNA level” value (rtxA, vvhA and plpA; A600=0.5, vs 2% DMSO)?
**A.** significantly reduced

**Q.** What about the “plpA mRNA level” value (rtxA, vvhA and plpA; A600=1.0, vs 2% DMSO) of the same compound?
**A.** significantly reduced

**Q.** And the “virulence (cytotoxicity) occurrence of Vibrio vulnificus” value (Vibrio vulnificus)?
**A.** concentration-dependent decrease

**Q.** And the “DNA-binding capability of HlyU” value (HlyU [4]; 100 μM compound, 50 nM or 100 nM HlyU, 25° C., 30 minutes)?
**A.** significantly decreased

**Q.** What about the “DNA-binding capability of HlyU, concentration dependence” value (HlyU [4]; CM2660 at different concentrations) of the same compound?
**A.** decrease became greater as the concentration of CM2660 increased

**Q.** What about the “cytotoxicity of Vibrio alginolyticus” value (Vibrio alginolyticus) of the same compound?
**A.** reduced in a concentration-dependent manner
